Source: PubChem BioAssay AID256 (DTP/NCI, 2004)
Several values for one entry are separate records, joined by “and”; a condition that tells them apart may be missing. Identical values can stand only once. Toxic doses and inconclusive results are not listed.

Tested on: CD2F1 mice, L1210 leukemia ip, survival T/C
Experiment: NCI In Vivo Anticancer Drug Screen. Data for tumor model L1210 Leukemia (intraperitoneal) in CD2F1 (CDF1) mice
Settings: higher = longer survival
Summary of the method: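 Activity against a transplanted murine tumor was judged by comparing the compound group with a vehicle group. The outcome in the treated animals was divided by that in the controls.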

[1] = endpoint: mean survival time, dose: 100.0 mg/kg/injection, schedule: Q01DX009 (ip), vehicle: saline with Tween-80
[2] = endpoint: mean survival time, dose: 200.0 mg/kg/injection, schedule: Q01DX009 (ip), vehicle: saline with Tween-80

`C=CS(=O)(=O)CCc1ccccc1` was tested, and the T/C (endpoint: mean survival time, dose: 50.0 mg/kg/injection, schedule: Q01DX001 (ip), vehicle: Klucel (hydroxypropylcellulose) (HPC)) was 101 % of control, the T/C (endpoint: mean survival time, dose: 100.0 mg/kg/injection, schedule: Q01DX001 (ip), vehicle: Klucel (hydroxypropylcellulose) (HPC)) was 111 % of control and the T/C (endpoint: mean survival time, dose: 200.0 mg/kg/injection, schedule: Q01DX001 (ip), vehicle: Klucel (hydroxypropylcellulose) (HPC)) was 108 % of control.
In the case of `O=C1c2ccccc2C(=O)N1Cc1cc([N+](=O)[O-])ccc1Cl`, the T/C (endpoint: mean survival time, dose: 50.0 mg/kg/injection, schedule: Q01DX009 (ip), vehicle: Klucel (hydroxypropylcellulose) (HPC)) is reported as 92 % of control, the T/C (endpoint: mean survival time, dose: 100.0 mg/kg/injection, schedule: Q01DX009 (ip), vehicle: Klucel (hydroxypropylcellulose) (HPC)) is reported as 94 % of control and the T/C (endpoint: mean survival time, dose: 200.0 mg/kg/injection, schedule: Q01DX009 (ip), vehicle: Klucel (hydroxypropylcellulose) (HPC)) is reported as 90 % of control.
`CCOC(=O)Nc1ccc(F)cc1F` was tested, and the T/C [1] was 94 % of control, the T/C [2] was 94 % of control and the T/C (endpoint: mean survival time, dose: 400.0 mg/kg/injection, schedule: Q01DX009 (ip), vehicle: saline with Tween-80) was 100 % of control.
For `CC(c1ccccc1)n1ccnc1CO` (centres undefined), the T/C (endpoint: mean survival time, dose: 12.5 mg/kg/injection, schedule: Q01DX009 (ip), vehicle: saline with Tween-80) was 96 % of control, the T/C (endpoint: mean survival time, dose: 25.0 mg/kg/injection, schedule: Q01DX009 (ip), vehicle: saline with Tween-80) was 104 % of control and the T/C (endpoint: mean survival time, dose: 50.0 mg/kg/injection, schedule: Q01DX009 (ip), vehicle: saline with Tween-80) was 96 % of control and 102 % of control. For the same compound, the T/C [1] was 91 % of control and the T/C [2] was 98 % of control.
With `Nc1cccc(-c2nc3ncnc(N)c3[nH]2)c1` the T/C (endpoint: mean survival time, dose: 100.0 mg/kg/injection, schedule: Q04DX003 (ip), vehicle: saline with Tween-80) was 94 % of control, the T/C (endpoint: mean survival time, dose: 200.0 mg/kg/injection, schedule: Q04DX003 (ip), vehicle: saline with Tween-80) was 94 % of control and the T/C (endpoint: mean survival time, dose: 400.0 mg/kg/injection, schedule: Q04DX003 (ip), vehicle: saline with Tween-80) was 93 % of control.
`Nc1ccn(C2OC(CO)C(O)C2Br)c(=O)n1` (centres undefined) was tested, and the T/C (endpoint: median survival time, dose: 12.5 mg/kg/injection, schedule: Q01DX005 (ip), vehicle: saline) was 108 % of control, the T/C (endpoint: median survival time, dose: 25.0 mg/kg/injection, schedule: Q01DX005 (ip), vehicle: saline) was 107 % of control and the T/C (endpoint: median survival time, dose: 50.0 mg/kg/injection, schedule: Q01DX005 (ip), vehicle: Klucel (hydroxypropylcellulose) (HPC)) was 118 % of control. For the same compound, the T/C (endpoint: median survival time, dose: 50.0 mg/kg/injection, schedule: Q01DX005 (ip), vehicle: saline) was 119 % of control and the T/C (endpoint: median survival time, dose: 200.0 mg/kg/injection, schedule: Q01DX005 (ip), vehicle: saline) was 150 % of control.
For `CC1=NCCc2c1cc1c([nH]c3ccccc31)c2C`, the T/C (endpoint: mean survival time, dose: 44.0 mg/kg/injection, schedule: Q01DX009 (ip), vehicle: saline with Tween-80) was 114 % of control and the T/C (endpoint: mean survival time, dose: 67.0 mg/kg/injection, schedule: Q01DX009 (ip), vehicle: saline with Tween-80) was 96 % of control.
With `O=C(Nc1ccc(C2=NCCN2)cc1)c1cc(Cl)cc(C(=O)Nc2ccc(C3=NCCN3)cc2)c1` the T/C (endpoint: mean survival time, dose: 62.5 mg/kg/injection, schedule: Q01DX009 (ip), vehicle: saline) was 101 % of control and 104 % of control, the T/C (endpoint: mean survival time, dose: 125.0 mg/kg/injection, schedule: Q01DX009 (ip), vehicle: saline) was 101 % of control and 103 % of control and the T/C (endpoint: mean survival time, dose: 250.0 mg/kg/injection, schedule: Q01DX009 (ip), vehicle: saline) was 107 % of control and 108 % of control. For the same compound, the T/C (endpoint: mean survival time, dose: 500.0 mg/kg/injection, schedule: Q01DX009 (ip), vehicle: saline) was 115 % of control and 110 % of control.
`CN(CCS(=O)(=O)O)/N=C/c1ccc2c(c1)OCO2` was tested, and the T/C (endpoint: mean survival time, dose: 25.0 mg/kg/injection, schedule: Q04DX003 (ip), vehicle: acetone) was 97 % of control, the T/C (endpoint: mean survival time, dose: 50.0 mg/kg/injection, schedule: Q04DX003 (ip), vehicle: acetone) was 103 % of control and the T/C (endpoint: mean survival time, dose: 100.0 mg/kg/injection, schedule: Q04DX003 (ip), vehicle: acetone) was 98 % of control.
For `CSc1ccc(NC=O)cc1`, the T/C (endpoint: mean survival time, dose: 75.0 mg/kg/injection, schedule: Q01DX001 (ip), vehicle: saline) was 98 % of control, the T/C (endpoint: mean survival time, dose: 150.0 mg/kg/injection, schedule: Q01DX001 (ip), vehicle: saline) was 100 % of control and the T/C (endpoint: mean survival time, dose: 300.0 mg/kg/injection, schedule: Q01DX001 (ip), vehicle: saline) was 100 % of control.
